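Method: 48-hour compound exposure of cells in 96-well plates, five concentrations, linear interpolation of endpoints. GI50 = concentration required for 50% inhibition of growth. Definition used: TGI = concentration required for complete inhibition of growth.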
Tests used:
Assay in all cases: NCI-60 cell line screen, 48 h
786-0 renal = system: 786-0 renal
A498 renal = system: A498 renal
HCT-15 colon = system: HCT-15 colon
HOP-62 NSCLC = system: HOP-62 NSCLC
HOP-92 NSCLC = system: HOP-92 NSCLC
HS 578T breast = system: HS 578T breast
KM12 colon = system: KM12 colon
OVCAR-8 ovarian = system: OVCAR-8 ovarian
SK-MEL-2 melanoma = system: SK-MEL-2 melanoma
U251 CNS = system: U251 CNS

| Compound | TGI (786-0 renal) | TGI (A498 renal) | TGI (HCT-15 colon) | TGI (HOP-62 NSCLC) | TGI (HOP-92 NSCLC) | TGI (HS 578T breast) | TGI (KM12 colon) | TGI (OVCAR-8 ovarian) | TGI (SK-MEL-2 melanoma) | TGI (U251 CNS) | GI50 (786-0 renal) | GI50 (A498 renal) | GI50 (HCT-15 colon) | GI50 (HOP-62 NSCLC) | GI50 (HOP-92 NSCLC) | GI50 (HS 578T breast) | GI50 (KM12 colon) | GI50 (OVCAR-8 ovarian) | GI50 (SK-MEL-2 melanoma) | GI50 (U251 CNS) |
| --- | --- | --- | --- | --- | --- | --- | --- | --- | --- | --- | --- | --- | --- | --- | --- | --- | --- | --- | --- | --- |
| CN1C(=O)C(CC(=O)O)NC1=S (centres undefined) | > 100 µM | > 100 µM | > 100 µM | > 100 µM | > 100 µM | > 100 µM | > 100 µM | > 100 µM | > 100 µM | > 100 µM | – | – | – | – | – | – | – | – | – | – |
| CC[C@@]1(OC(=O)CN)C(=O)OCc2c1cc1n(c2=O)Cc2cc3c(N)cccc3nc2-1 | 0.203 µM | 0.156 µM | > 100 µM | – | > 100 µM | > 100 µM | 1.92 µM | 0.153 µM | 0.49 µM | 0.405 µM | < 0.01 µM | < 0.016 µM | 0.249 µM | < 0.01 µM | 0.0371 µM | > 100 µM | 0.158 µM | < 0.01 µM | 0.132 µM | < 0.01 µM |
| O=C(O)c1cc(-c2ccncc2)nc2ccccc12 | > 100 µM | > 100 µM | > 100 µM | > 100 µM | > 100 µM | > 100 µM | > 100 µM | > 100 µM | > 100 µM | > 100 µM | – | – | – | – | – | – | – | – | – | – |
| NC1=C(c2nc(-c3ccccc3)cs2)C(c2ccc(Br)cc2)c2c(c3ccccc3oc2=O)O1 (centres undefined) | > 150 µg/mL | > 150 µg/mL | > 150 µg/mL | > 150 µg/mL | 102 µg/mL | 91.4 µg/mL | > 150 µg/mL | > 150 µg/mL | > 150 µg/mL | > 150 µg/mL | 75.6 µg/mL | 33.9 µg/mL | 70.1 µg/mL | 116 µg/mL | 38.4 µg/mL | 30.4 µg/mL | > 150 µg/mL | 112 µg/mL | 89 µg/mL | 48.2 µg/mL |
| Nc1c([N+](=O)[O-])cc2c3c(cccc13)CC2 | > 100 µM | > 100 µM | > 100 µM | > 100 µM | > 100 µM | > 100 µM | > 100 µM | > 100 µM | > 100 µM | > 100 µM | – | – | – | – | – | – | – | – | – | – |
| O=c1oc2cc(N=Cc3ccc4c(c3)OCO4)ccc2c2ccccc12 | > 100 µM | > 100 µM | > 100 µM | > 100 µM | > 100 µM | > 100 µM | > 100 µM | > 100 µM | > 100 µM | > 100 µM | – | – | – | – | – | – | – | – | – | – |
| O=C1C=CC[C@H](/C=C/c2ccccc2)O1 | 24.3 µM | 6.91 µM | 22.2 µM | > 61.6 µM | 18.3 µM | 30.4 µM | 17.8 µM | > 100 µM | 34.2 µM | 13.1 µM | 6.28 µM | 1.45 µM | 3.14 µM | 7.44 µM | 1.19 µM | 3.15 µM | 4.06 µM | 6.03 µM | 6.57 µM | 1.88 µM |
| COc1cc2c(cc1OCCCCCOc1ccc(-n3c(C)nc4ccccc4c3=O)cc1)N=C[C@@H]1CCCN1C2=O | 0.36 µM | 0.543 µM | 3.9 µM | 0.524 µM | 7.38 µM | 0.88 µM | 0.362 µM | 3 µM | 1.25 µM | 0.759 µM | 0.157 µM | 0.214 µM | 1.13 µM | 0.23 µM | 0.394 µM | 0.232 µM | 0.173 µM | 0.363 µM | 0.377 µM | 0.231 µM |

Source: PubChem BioAssay (NCI)
